The values that follow come from patent US20140263071A1, “METHOD FOR COLLECTING METALS” (CHEMEC OY AB, priority 2011, published 2014).

Series [1] is described as follows: Solubility of the compounds, molybdenum blue method, UV/Vis 880 nm (Example 6). It is filed as physicochemical. The note with it: saturated aqueous solution. The text has this:
The low solubility is achieved by using long carbon chain(s) or aromatic ring(s) in the bisphosphonate structure I. Advantageously, compound I contains 7-16 carbon atoms either in chain, branched chain or cyclic structure or in combination of these structural units between A and X, and preferably in the chain starting from the P-C-P bridging carbon and the number of heteroatomic functional groups excluding the phosphorous functionalities are limited to two or three groups. The solubility decreases even more if compound I contains functional groups which are capable to form twitter ions with each other. Typical examples of twitter ions are acids (e.g., —CO2H or —PO3H2) and bases (amines) in the same molecule. Solubilities of selected bisphosphonate compounds I were determined with UV/Vis spectrophotometer at 880 nm using molybdenum blue method (Finnish Standard Association SFS 3026: Determination of phosphate in water. Finnish Standard Association SFS, Helsinki Finland, 1986).
Solubilities of selected compounds were determined with UV/Vis Spectrophotometer at 880 nm using molybdenum blue method from saturated aqueous samples solutions (Finnish Standard Association SFS 3026: Determination of phosphate in water. Finnish Standard Association SFS, Helsinki Finland, 1986).

Series [2] can be described thus: Concentration of diluted samples, recovery after 1:10000 dilution (Example 24). The note with it: 1e 1 g in 10 liters. The method, then: A water solution (100 ml) containing 100 ppb of desired metallic element prepared from Merch Titrisol® standard was diluted to 10 liters of water, pH was adjusted and the mixture was treated with 1e (1 g) for 24 h with stirring. After filtration trough sintered disc (porosity G-4), the solids were decomposed by using microware digestion, the residue was dilution to known volume of water (10 ml) and metal concentrations were determined by using AAS method.

Like-named read-outs stand apart in the source and are kept apart here.

With `NCCCCCCCCCCCC(O)(P(=O)(O)O)P(=O)(O)O` [Compound 1e, 12-Amino-1-hydroxydodecane-1,1-diyldiphosphonic acid], the results for the solubility in series [1] (read-out: mg/l (solubility calculated for whole molecule)) and in series [1] (read-out: mg/l P (solubility calculated as elemental phosphorus)) were 31 mg/L and 5 mg/L, respectively. Besides, the “Yield [%] (recovery)” value in series [2] (Cd^2+, pH 3.6) is listed as 98%; in series [2] (Cr^3+, pH 3.0), 98%; in series [2] (Cr^3+, pH 7.0) it was 97%; in series [2] (Hg^2+, pH 2.0), 93%; in series [2] (Hg^2+, pH 4.9), 94%; in series [2] (Hg^2+, pH 9.2) it was 94%. Moreover, the “Yield [%] (recovery)” value in series [2] (Hg^+, pH 2.0) is recorded as 89%; in series [2] (Hg^+, pH 5.0) it was 92%; in series [2] (Hg^+, pH 9.2), 92%; in series [2] (Pb^2+, pH 3.2), 100%; in series [2] (Pb^2+, pH 5.0), 85%; in series [2] (UO2^2+, pH 3.0), 87%.
